Results published in US12712060B2, “Multi-modal crypto/bio-human-machine interface” (The Regents of the University of California, priority 2022, dated 2026).

What was measured:
[1] = touch-based APAP TH-sensor (DPV) measurement on index fingertip after APAP medication intake; format: in vivo, human; details: 60 min after intake of 650 mg APAP, APAP-free threshold 3.7 nA
Description: Adopted was a similar study framework to evaluate the in-situ detection capability of APAP TH-sensor. For this context, the measured signal is defined as the voltammetric current peak height ([…]), and the threshold for determining the APAP-free state was measured as 3.7 nA (three trials). FIGS. 3D and 3E show the corresponding voltammograms measured by the APAP TH-sensor, 10 min before and 60 min after the intake of an APAP-based medication (containing 650 mg APAP). The comparison of the two voltammograms and the corresponding extracted current peaks (IP, pre-intake ~0 nA vs. IP, post-intake ~15 nA) validates that the developed TH-sensor is capable of detecting the presence of circulating APAP molecules via the devised touch-based modality.

[2] = patient, 900 mg lithium carbonate; ~0-1 h pre-intake vs ~1-2 h post-intake
Description: Further validated was the performance of the developed TOH-ISE in an in-situ lithium adherence monitoring study. To this end, a subject prescribed lithium-based medication was recruited. […] In a control experiment, touch-based sensing and salivary lithium analysis were also performed on three healthy subjects, where circulating lithium is expected to be negligible.
In-situ TOH-ISE characterization. […] For each touch-based entry, the subjects were instructed to wash their index or middle fingertips with DI water before testing. The acquired potentiometric readouts were processed using the same method as the ex-situ experiments to extract the sensing signal. For saliva collection, the subjects were instructed to rinse their mouth with cold water before collection. The samples were collected via direct salivation using a Saliva Collection Aid (Salimetrics, CA, USA). The salivary lithium was quantified using a colorimetric lithium assay kit (Abcam ab235613, MA, USA) and Nanodrop One (Thermo Fisher, MA, USA).

[3] = cited from earlier work
[4] = human, in vivo, 60 min
Description: Embodiments specifically employ the ethanol TH-sensor to assess whether the sensor is capable of differentiating between two states: no alcohol-intake vs. recent intake of an alcoholic beverage. For this context, defined were the measured signal S as the slope of the sensor's amperometric response, and the threshold as Sfree, avg+3×Sfree, SD, where Sfree, avg and Sfree, SD are the average and standard deviation of the signals obtained from the alcohol-free subject (three trials). […] Then performed were touch-based TH-sensor measurements before (t=−20 min) and after (t=+60 min) the intake of an alcoholic beverage (~100 mL, 12.5% alcohol).
Two human subjects participated in the characterization of each type of TH-sensor. For each trial, the subjects were instructed to wash their index fingertips with deionized (DI) water before testing and to rinse their mouth with cold water immediately after the beverage/medication intake (to avoid contamination from residue). Touch-based measurements were performed using corresponding TH-sensors before and at intermittent time points after the beverage/medication intake. The water loss from the fingertip was monitored by an evaporimeter (VapoMeter, Delfin Technologies). The fingertip temperature was monitored by a thermocouple (HT-9815, RISEPRO). […] BAC was estimated using an alcohol breathalyzer (S80, BACtrack Inc.). […]

CC(=O)Nc1ccc(O)cc1 [APAP, acetaminophen]
APAP TH-sensor voltammetric current peak height IP, post-intake [1]: ~ 15 nA

O=C([O-])[O-].[Li+].[Li+] [lithium, lithium carbonate]
TOH-ISE touch-based sensing signal, post versus pre drug intake [2]: larger signal | clinically relevant range in non-invasively retrievable biofluid (e.g., saliva) ([3]; saliva, ~twice the corresponding serum concentrations): 0.5 to 3 mM | therapeutic window ([3]; severe adverse effects if overdosed): 0.6 to 1.2 mM

CCO [ethanol]
ethanol TH-sensor signal S (slope of amperometric response) [4]: 21.5 nA/min
